According to patent US6914045B2, “Glycopeptide antibiotics” (Wyeth Holdings Corporation, priority 2001, dated 2005):
Converted amounts (≈) assume the structure as drawn. Blank lines part the entries; values can stand above or below the compound they belong to.

Key:
Assay in all cases: in vitro antibacterial evaluation, MIC by broth dilution
Type in all cases: cell-based
Escherichia coli = settings: 18 hours at 35° C.
Protocol: (§1) The minimum inhibitory concentration (MIC), the lowest concentration of the antibiotic which inhibits growth of the test organism, is determined by the broth dilution method using Muller-Hinton II […] (Baltimore Biological Laboratories) following the recommendations of the National Committee for Clinical Laboratory Standards [Methods for dilution antimicrobial susceptibility tests for bacteria that grow aerobically, approved standard M7-A2, National Committee for Clinical Laboratory Standards, Villanova, Pa.].
(§2) An inoculum level of 5×10^5 CFU/mL, and a range of antibiotic concentrations (64-0.06 μg/mL) is used. […] The test organisms include a spectrum of Gram-positive bacteria comprised of Staphylococcus sp., Streptococcus sp. and Enterococcus sp. These organisms include recent clinical isolates that are resistant to methicillin, penicillin and/or vancomycin.

Streptococcus sp. = settings: broth dilution, 18 hours at 35° C.
Protocol: (§3) Methods for in vitro Antibacterial Evaluation (Table 1)
as §1, §2

Enterococcus sp. = settings: broth dilution, 18 hours at 35° C.
Protocol: as §3, §1, §2

Staphylococcus sp. = settings: broth dilution, 18 hours at 35° C.; for MIC Staphylococcus aureus (ATCC 29213): strain ATCC 29213; for MIC Staphylococcus aureus (GC 1131): strain GC 1131; for MIC Staphylococcus aureus (GC 3051): strain GC 3051; for MIC Staphylococcus aureus (GC 3053): strain GC 3053; for MIC Staphylococcus aureus (GC 4541): strain GC 4541; for MIC Staphylococcus aureus (GC 4542): strain GC 4542; for MIC Staphylococcus aureus-SMITH (GC 4543): strain GC 4543; for MIC Staphylococcus aureus (GC 4544): strain GC 4544; for MIC Staphylococcus aureus (GC 4545): strain GC 4545; for MIC Staphylococcus haemolyticus (GC 4546): strain GC 4546; for MIC Coagulase Negative Staphylococcus (GC 4547): strain GC 4547; for MIC Coagulase Negative Staphylococcus (GC 4548): strain GC 4548; for MIC Coagulase Negative Staphylococcus (GC 4549): strain GC 4549; for MIC Coagulase Negative Staphylococcus (GC 4551): strain GC 4551
Protocol: as §3, §1, §2

MIC Escherichia coli (ATCC 25922) (Escherichia coli): 32 µg/mL (≈ 22.4 µM)
MIC Escherichia coli (GC 4559) (Escherichia coli): 64 µg/mL (≈ 44.7 µM)
MIC Escherichia coli (GC 4560) (Escherichia coli): 2 µg/mL (≈ 1.4 µM)
MIC Streptococcus agalactiae (GC 4564) (Streptococcus sp.): <0.12 µg/mL
MIC Streptococcus pneumoniae (ATCC 6301) (Streptococcus sp.): <0.12 µg/mL
MIC Streptococcus pneumoniae (GC 1894) (Streptococcus sp.): <0.12 µg/mL
MIC Streptococcus pneumoniae (GC 4565) (Streptococcus sp.): <0.12 µg/mL
MIC Streptococcus pyogenes (GC 4563) (Streptococcus sp.): <0.12 µg/mL
MIC Streptococcus pneumoniae (ATCC 6301) (Streptococcus sp.; inoculum 5×10^5 CFU/mL, strain ATCC 6301): <0.12 µg/mL
MIC Streptococcus pneumoniae (GC 1894) (Streptococcus sp.; inoculum 5×10^5 CFU/mL, strain GC 1894): <0.12 µg/mL
MIC Streptococcus pyogenes (GC 4563) (Streptococcus sp.; inoculum 5×10^5 CFU/mL, strain GC 4563): <0.12 µg/mL
MIC Streptococcus agalactiae (GC 4564) (Streptococcus sp.; inoculum 5×10^5 CFU/mL, strain GC 4564): <0.12 µg/mL
MIC Streptococcus pneumoniae (GC 4565) (Streptococcus sp.; inoculum 5×10^5 CFU/mL, strain GC 4565): <0.12 µg/mL
MIC Enterococcus avium (GC 4558) (Enterococcus sp.): 1 µg/mL (≈ 0.699 µM)
MIC Enterococcus faecalis (ATCC 29212) (Enterococcus sp.): 4 µg/mL (≈ 2.79 µM)
MIC Enterococcus faecalis (GC 2242) (Enterococcus sp.): 4 µg/mL (≈ 2.79 µM)
MIC Enterococcus faecalis (GC 2691) (Enterococcus sp.): 2 µg/mL (≈ 1.4 µM)
MIC Enterococcus faecalis (GC 3059) (Enterococcus sp.): 2 µg/mL (≈ 1.4 µM)
MIC Enterococcus faecalis (GC 4552) (Enterococcus sp.): 4 µg/mL (≈ 2.79 µM)
MIC Enterococcus faecalis (GC 4553) (Enterococcus sp.): 4 µg/mL (≈ 2.79 µM)
MIC Enterococcus faecalis (GC 4554) (Enterococcus sp.): 4 µg/mL (≈ 2.79 µM)
MIC Enterococcus faecalis (GC 6189) (Enterococcus sp.): 2 µg/mL (≈ 1.4 µM)
MIC Enterococcus faecium (GC 2243) (Enterococcus sp.): 4 µg/mL (≈ 2.79 µM)
MIC Enterococcus faecium (GC 4556) (Enterococcus sp.): 4 µg/mL (≈ 2.79 µM)
MIC Enterococcus faecium (GC 4557) (Enterococcus sp.): 2 µg/mL (≈ 1.4 µM)
MIC Enterococcus faecalis (ATCC 29212) (Enterococcus sp.; inoculum 5×10^5 CFU/mL, strain ATCC 29212): 4 µg/mL (≈ 2.79 µM)
MIC Enterococcus faecalis (GC 2242) (Enterococcus sp.; inoculum 5×10^5 CFU/mL, strain GC 2242): 4 µg/mL (≈ 2.79 µM)
MIC Enterococcus faecium (GC 2243) (Enterococcus sp.; inoculum 5×10^5 CFU/mL, strain GC 2243): 4 µg/mL (≈ 2.79 µM)
MIC Enterococcus faecalis (GC 2691) (Enterococcus sp.; inoculum 5×10^5 CFU/mL, strain GC 2691): 2 µg/mL (≈ 1.4 µM)
MIC Enterococcus faecalis (GC 3059) (Enterococcus sp.; inoculum 5×10^5 CFU/mL, strain GC 3059): 2 µg/mL (≈ 1.4 µM)
MIC Enterococcus faecalis (GC 4552) (Enterococcus sp.; inoculum 5×10^5 CFU/mL, strain GC 4552): 4 µg/mL (≈ 2.79 µM)
MIC Enterococcus faecalis (GC 4553) (Enterococcus sp.; inoculum 5×10^5 CFU/mL, strain GC 4553): 4 µg/mL (≈ 2.79 µM)
MIC Enterococcus faecalis (GC 4554) (Enterococcus sp.; inoculum 5×10^5 CFU/mL, strain GC 4554): 4 µg/mL (≈ 2.79 µM)
MIC Enterococcus faecium (GC 4556) (Enterococcus sp.; inoculum 5×10^5 CFU/mL, strain GC 4556): 4 µg/mL (≈ 2.79 µM)
MIC Enterococcus faecium (GC 4557) (Enterococcus sp.; inoculum 5×10^5 CFU/mL, strain GC 4557): 2 µg/mL (≈ 1.4 µM)
MIC Enterococcus avium (GC 4558) (Enterococcus sp.; inoculum 5×10^5 CFU/mL, strain GC 4558): 1 µg/mL (≈ 0.699 µM)
MIC Enterococcus faecalis (GC 6189) (Enterococcus sp.; inoculum 5×10^5 CFU/mL, strain GC 6189): 2 µg/mL (≈ 1.4 µM)
MIC Staphylococcus aureus (ATCC 29213) (Staphylococcus sp.): 1 µg/mL (≈ 0.699 µM)
MIC Staphylococcus aureus (GC 1131) (Staphylococcus sp.): 2 µg/mL (≈ 1.4 µM)
MIC Staphylococcus aureus (GC 3051) (Staphylococcus sp.): 2 µg/mL (≈ 1.4 µM)
MIC Staphylococcus aureus (GC 3053) (Staphylococcus sp.): 1 µg/mL (≈ 0.699 µM)
MIC Staphylococcus aureus (GC 4541) (Staphylococcus sp.): 1 µg/mL (≈ 0.699 µM)
MIC Staphylococcus aureus (GC 4542) (Staphylococcus sp.): 1 µg/mL (≈ 0.699 µM)
MIC Staphylococcus aureus-SMITH (GC 4543) (Staphylococcus sp.): 1 µg/mL (≈ 0.699 µM)
MIC Staphylococcus aureus (GC 4544) (Staphylococcus sp.): 1 µg/mL (≈ 0.699 µM)
MIC Staphylococcus aureus (GC 4545) (Staphylococcus sp.): 1 µg/mL (≈ 0.699 µM)
MIC Coagulase Negative Staphylococcus (GC 4547) (Staphylococcus sp.): 1 µg/mL (≈ 0.699 µM)
MIC Coagulase Negative Staphylococcus (GC 4548) (Staphylococcus sp.): 0.5 µg/mL (≈ 0.349 µM)
MIC Coagulase Negative Staphylococcus (GC 4549) (Staphylococcus sp.): 0.5 µg/mL (≈ 0.349 µM)
MIC Coagulase Negative Staphylococcus (GC 4551) (Staphylococcus sp.): 4 µg/mL (≈ 2.79 µM)
SMILES: CC(c1ccccc1)C1NC(=O)CNC(=O)C(CO)NC(=O)C(C(O)C2CNC(=N)N2C2OC(CO)C(O)C(O)C2O)NC(=O)C(C(O)C2CNC(=N)N2)NC(=O)C(Cc2ccc(OC3OC(CO)C(OC4OC5COC6(CC(C)(C)CC(C)(C)C6)OC5C(O)C4O)C(O)C3O)cc2)NC1=O (stereo not shown) [Example 207]
MIC Staphylococcus haemolyticus (GC 4546) (Staphylococcus sp.): 1 µg/mL (≈ 0.699 µM)

MIC Escherichia coli (ATCC 25922) (Escherichia coli; strain ATCC 25922, broth dilution): 16 µg/mL (≈ 13.6 µM)
MIC Escherichia coli (GC 4559) (Escherichia coli; strain GC 4559, broth dilution): 8 µg/mL (≈ 6.78 µM)
MIC Escherichia coli (GC 4560) (Escherichia coli; strain GC 4560, broth dilution): 4 µg/mL (≈ 3.39 µM)
MIC Streptococcus pneumoniae (ATCC 6301) (Streptococcus sp.; strain ATCC 6301): 8 µg/mL (≈ 6.78 µM)
MIC Streptococcus pneumoniae (GC 1894) (Streptococcus sp.; strain GC 1894): 8 µg/mL (≈ 6.78 µM)
MIC Streptococcus pyogenes (GC 4563) (Streptococcus sp.; strain GC 4563): 2 µg/mL (≈ 1.69 µM)
MIC Streptococcus agalactiae (GC 4564) (Streptococcus sp.; strain GC 4564): 4 µg/mL (≈ 3.39 µM)
MIC Streptococcus pneumoniae (GC 4565) (Streptococcus sp.; strain GC 4565): 8 µg/mL (≈ 6.78 µM)
MIC Enterococcus faecalis (ATCC 29212) (Enterococcus sp.; strain ATCC 29212): 16 µg/mL (≈ 13.6 µM)
MIC Enterococcus faecalis (GC 2242) (Enterococcus sp.; strain GC 2242): 16 µg/mL (≈ 13.6 µM)
MIC Enterococcus faecium (GC 2243) (Enterococcus sp.; strain GC 2243): 8 µg/mL (≈ 6.78 µM)
MIC Enterococcus faecalis (GC 2691) (Enterococcus sp.; strain GC 2691): 16 µg/mL (≈ 13.6 µM)
MIC Enterococcus faecalis (GC 3059) (Enterococcus sp.; strain GC 3059): 32 µg/mL (≈ 27.1 µM)
MIC Enterococcus faecalis (GC 4552) (Enterococcus sp.; strain GC 4552): 2 µg/mL (≈ 1.69 µM)
MIC Enterococcus faecalis (GC 4553) (Enterococcus sp.; strain GC 4553): 4 µg/mL (≈ 3.39 µM)
MIC Enterococcus faecalis (GC 4554) (Enterococcus sp.; strain GC 4554): 16 µg/mL (≈ 13.6 µM)
MIC Enterococcus faecium (GC 4556) (Enterococcus sp.; strain GC 4556): 8 µg/mL (≈ 6.78 µM)
MIC Enterococcus faecium (GC 4557) (Enterococcus sp.; strain GC 4557): 2 µg/mL (≈ 1.69 µM)
MIC Enterococcus avium (GC 4558) (Enterococcus sp.; strain GC 4558): 4 µg/mL (≈ 3.39 µM)
MIC Enterococcus faecalis (GC 6189) (Enterococcus sp.; strain GC 6189): 16 µg/mL (≈ 13.6 µM)
MIC Staphylococcus aureus (ATCC 29213) (Staphylococcus sp.): 8 µg/mL (≈ 6.78 µM)
MIC Staphylococcus aureus (GC 1131) (Staphylococcus sp.): 4 µg/mL (≈ 3.39 µM)
MIC Staphylococcus aureus (GC 3051) (Staphylococcus sp.): 4 µg/mL (≈ 3.39 µM)
MIC Staphylococcus aureus (GC 3053) (Staphylococcus sp.): 4 µg/mL (≈ 3.39 µM)
MIC Staphylococcus aureus (GC 4541) (Staphylococcus sp.): 4 µg/mL (≈ 3.39 µM)
MIC Staphylococcus aureus (GC 4542) (Staphylococcus sp.): 4 µg/mL (≈ 3.39 µM)
MIC Staphylococcus aureus-SMITH (GC 4543) (Staphylococcus sp.): 2 µg/mL (≈ 1.69 µM)
MIC Staphylococcus aureus (GC 4544) (Staphylococcus sp.): 4 µg/mL (≈ 3.39 µM)
MIC Staphylococcus aureus (GC 4545) (Staphylococcus sp.): 2 µg/mL (≈ 1.69 µM)
MIC Coagulase Negative Staphylococcus (GC 4547) (Staphylococcus sp.): 4 µg/mL (≈ 3.39 µM)
MIC Coagulase Negative Staphylococcus (GC 4548) (Staphylococcus sp.): 2 µg/mL (≈ 1.69 µM)
MIC Coagulase Negative Staphylococcus (GC 4549) (Staphylococcus sp.): 1 µg/mL (≈ 0.847 µM)
MIC Coagulase Negative Staphylococcus (GC 4551) (Staphylococcus sp.): 4 µg/mL (≈ 3.39 µM)
SMILES: CC(c1ccccc1)C1NC(=O)CNC(=O)C(CO)NC(=O)C(C(O)C2CNC(=N)N2C2OC(CO)C(O)C(O)C2O)NC(=O)C(C(O)C2CNC(=N)N2)NC(=O)C(Cc2ccc3oc(SCC(=O)c4ccc(Cl)cc4)nc3c2)NC1=O (stereo not shown) [Example 49]
MIC Staphylococcus haemolyticus (GC 4546) (Staphylococcus sp.): 1 µg/mL (≈ 0.847 µM)
